Results reported in patent US20210349077A1, “Method of quantifying induced membrane permeability and of screening compounds able to prevent said permeability” (Zarbio, priority 2020, published 2021).

Assays:
[1] = Flow cytometric calcium permeabilization of phosphatidylserine liposomes (DiD membrane probe, Fluo-3 calcium probe); type: biochemical; details: for permeability of liposomes to calcium: peptide stock in DMSO, final concentration 10 μM; for channel formation / permeabilization of membranes to calcium: summary statement, FIG. 10 and 12
From the text: (§1) Unilamellar liposomes are created with Fluo-3 membrane-impermeant fluorescent dye sensitive to the concentration of calcium (an example of ion sensitive probe, ISP, at the FIG. 2). The buffer for the created liposomes is calcium-free, and can contain calcium-chelating agents, such as EGTA or EDTA. Both calcium-free and calcium-bound Fluo-3 effectively absorb light with wavelength of 488 nm (one of typical lasers used in flow cytometers, blue light). […] Measuring the fluorescence at 520 nm allows to distinguish the liposomes which contain free calcium and those which are impermeant to calcium.
(§2) To identify liposomes in the flow, lipids can be supplemented with a lipophilic dye such as 1,1′-dioctadecyl-3,3,3′,3′-tetramethylindodicarbocyanine (DiD), which serves as membrane probe (MP at the FIG. 2). […] However, after ion channels are formed in the particular liposome, the electrolytes are equilibrated between inside and outside of the liposome. Therefore, due to the presence of calcium outside, the liposomes with the channels will have high free calcium, so Fluo-3 will have intensive fluorescence.
(§3) In the flow cytometer, the appearance of channels is visible as increasing proportion of calcium-loaded liposomes compared with calcium-free liposomes. When every liposome becomes permeant to calcium, all liposomes will be presented as loaded with calcium. This condition is used for normalization and can be achieved in control experiments by the addition of calcium ionophore such as ionomycin.
Liposomes (400 nm) were made of phosphatidylserine with DiD and were extruded in the buffer without (A-C) or with (D-I) 1 mM Fluo-3. […] Liposomes with membrane but without calcium-sensitive probe in the presence of calcium. • D, E, F (Second row). Liposomes with both membrane and calcium-sensitive probe in the presence of calcium. • G, H, I (Third row). Liposomes with both membrane and calcium-sensitive probe in the absence of calcium. • A, D, G (First column). Liposomes only. • B, E, H (Second column). Liposomes with added 5 μM Aβ25-35. • C, F, I (Third column). Liposomes with added 5 μM Aβ25-35 followed by ionomycin.
Liposomes made of phosphatidylserine and contained both DiD and Fluo-3. In a calcium-containing medium, membranes are not permeant to calcium, so there is a minimal number of liposomes with increased levels of green fluorescence (A). […] Increasing concentration of amyloid peptide increases the number of permeant liposomes (C, D).
This figure summarizes data from experiments, described at the FIG. 10. Liposomes made of phosphatidylserine and contained both DiD and Fluo-3 were treated by various concentrations of Aβ25-35. For the treatment, the same stock solution of peptide in distilled water was added to the suspension of liposomes in a calcium-containing medium. The gate to count the number of permeabilized vesicles is shown at the density plot (left graph).
Phosphatidylserine liposomes were prepared to contain both DiD and Fluo-3 as described for previous figures. Liposomes were tested to be permeabilized by Aβ25-35. • A. Control PS liposomes with calcium (60 μM). Limited number of events is registered in the area corresponding to permeabilized vesicles. • B. Effect of Aβ1-42 (8 μM). […] Effect of ionomycin (50 nM, positive control).
In this experiment, stock solution of peptides was prepared in DMSO to extend the testing to the peptide which are not soluble in water-based excipients. […] There is no difference between the effects of the peptide that was dissolved initially in DMSO (“Lip+Pep/DMSO”) and water (not shown here). • C.
The permeabilization to calcium ions will be described first as an example. To detect calcium transmembrane transfer, calcium-sensitive probes are used, such as Fluo-3 or Fluo-4 which dramatically increase their fluorescence upon binding calcium. Liposomes are formed in a calcium-free medium containing calcium-sensitive probe. […]

[2] = Flow cytometric fluorescence test of phosphatidylcholine liposomes (DiD, Fluo-3); type: biochemical
From the text: as §1, §2, §3
Liposomes (400 nm) were made of phosphatidylcholine with DiD and were extruded in the buffer containing 1 mM Fluo-3 (A-H) or without Fluo-3 (I, J).
The effect of Aβ25-35 was the same in calcium-free medium with EGTA (F,G).

Aβ25-35: short fragment of beta-amyloid peptide that forms membrane channels (GSNKGAIIGLM; Amyloid-beta protein 42; UniProt P05067 696-706, looked up, fragment)
time for effects of the peptide to develop after addition to liposomes [1]: within the first minute | liposomes made permeant to calcium ([1]; 2 μM peptide, calcium-containing medium): makes some of liposomes permeant to calcium | green (Fluo-3) signal from vesicles ([1]; 5 μM peptide, 400 nm liposomes with 1 mM Fluo-3, extravesicular calcium present): increased green signal from vesicles only in the presence of both Fluo-3 and calcium | green signal from vesicles ([1]; 5 μM peptide, DiD-only liposomes or calcium-free buffer (EGTA)): did not have effect | change in number of permeabilized liposomes on prolonged incubation ([1]; incubation with the peptide for up to one hour): does not change the number of permeabilized liposomes | permeability of liposomes to calcium [1]: permeabilized liposomes | liposomes of total number that become permeant to calcium ([1]; phosphatidylserine liposomes, various conditions (FIG. 11)): up to 10% | channel formation / permeabilization of membranes to calcium [1]: efficiently permeabilize multiple liposomes | dependence of number of permeabilized liposomes on amount of added peptide ([1]; various concentrations, stock in distilled water, calcium-containing medium): linearly dependent on the amount of added peptide | effect on green signal compared with calcium-containing medium ([2]; calcium-free medium with EGTA): the same | green signal from vesicles ([2]; concentrations above 10 μM (20 μM, 50 μM), 400 nm liposomes with 1 mM Fluo-3, calcium present): slightly but reproducibly increased green signal from vesicles | shift of green fluorescence distribution ([2]; liposomes extruded without Fluo-3): still shifted the distribution upward

C[C@H](CCC(=O)O)C[C@H](C)C[C@H](C)C(=O)/C=C(\O)[C@H](C)C[C@H](C)C/C=C/[C@@H](C)[C@@H](O)[C@@H](C)[C@@H](O)C[C@@H]1CC[C@@](C)([C@H]2CC[C@@](C)([C@@H](C)O)O2)O1 [ionomycin]
permeabilization of liposomes (positive control) ([1]; 50 nM, calcium 60 μM): permeabilizes all liposomes | effect of ionomycin added following 5 μM Aβ25-35 ([1]; DiD-only vesicles and in the absence of calcium): did not produce any effect | Fluo-3 signal after ionomycin added following 5 μM Aβ25-35 ([1]; liposomes with Fluo-3, calcium present): did not further increase the Fluo-3 signal from vesicles with low DiD signal but additionally shifted upwards the part of the distribution with high DiD signal | fluorescence after ionophore addition ([2]; liposomes with 1 mM Fluo-3, calcium present): significantly increased fluorescence

Aβ31-35: amyloid-beta peptide fragment tested at 10 μM from DMSO stock (IIGLM; Amyloid-beta protein 42; UniProt P05067 702-706, looked up, fragment)
permeability of liposomes to calcium [1]: did not affect the permeability of liposomes

Aβ1-42: full-length amyloid peptide
number of events in the area corresponding to permeabilized vesicles ([1]; 8 μM peptide, calcium 60 μM, compared with control): does not exceed same number observed in control experiment | channel formation / permeabilization of membranes to calcium [1]: does not create channels permeabilizing membranes to calcium
